Results published in US20120095022A1, “DERIVATIVES OF 10-AMINO-1,2,3,4-TETRAHYDROPYRIDO[2,1-A]ISOINDOL-6(10BH)-ONES, METHOD FOR PREPARATION THEREOF AND THERAPEUTIC USES THEREOF” (UNIVERSITE D'ORLEANS, priority 2009, published 2012).

Key:
Caco (colon) = experiment: Cytotoxicity on human cells, automated nuclei counting: Caco; type: cell-based; conditions: exposed 24 h to 48 h, 0.1 to 25 μM
Method: (§1) Cytotoxicity: This method is based on an automated imaging analysis. 4.10^3 cells were cultivated on 96-well plates and left for 24 hours so as to bind, to spread and proliferate.
(§2) All the cell lines were cultivated in a DMEM or RPMI (Invitrogen) medium. All these media were completed with antibiotics (penicillin-streptomycin) (Lonza) and 10% by volume of fetal calf serum (Invitrogen). The cells were cultivated at 37° C. with 5% of CO2. The treatments with the molecules to be tested were carried out with increasing concentrations. The control experiments were also carried out by using suitable dilutions of DMSO (maximum 1% DMSO).

CDK5/D25 = target: T1, CDK5/D25 (Homo sapiens, UniProt Q00535); experiment: CDK5 kinase inhibition (33P-ATP, histone H1); type: biochemical; conditions: buffer C, 30° C., 15 μM ATP, read-out: IC50 μM Kinases CDK5
T1 construct: made in house
T1 sequence (Q00535 whole entry): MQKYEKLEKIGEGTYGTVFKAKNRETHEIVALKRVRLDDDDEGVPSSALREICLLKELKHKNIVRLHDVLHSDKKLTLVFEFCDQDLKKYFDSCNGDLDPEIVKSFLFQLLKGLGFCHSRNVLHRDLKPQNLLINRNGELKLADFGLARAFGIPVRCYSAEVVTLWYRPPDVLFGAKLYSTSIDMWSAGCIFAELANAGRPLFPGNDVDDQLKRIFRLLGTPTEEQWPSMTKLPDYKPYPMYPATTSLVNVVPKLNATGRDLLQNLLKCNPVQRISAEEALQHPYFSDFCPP
T1 sequence (Q15078 99-307 partner limits assumed): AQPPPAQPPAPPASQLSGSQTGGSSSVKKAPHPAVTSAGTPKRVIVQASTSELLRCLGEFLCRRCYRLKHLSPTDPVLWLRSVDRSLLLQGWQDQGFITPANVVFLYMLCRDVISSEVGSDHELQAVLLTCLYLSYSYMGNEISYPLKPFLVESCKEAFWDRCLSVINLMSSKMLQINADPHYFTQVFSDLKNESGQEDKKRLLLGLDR
Method: The protein kinase inhibition activities of the compounds of the invention are tested according to the following general procedure:
Buffer C: 60 mM β-glycerophosphate, 15 mM p-nitrophenyl-phosphate, 25 mM Mops (pH 7.2), 5 mM EGTA, 15 mM mgCl2, 1 mM DTT, 1 mM sodium vanadate and 1 mM phenylphosphate.
The controls were made with suitable dilutions of DMSO.
ATP (3.000 Ci/mmol.; 10 mCi/mL) in a final volume of 30 μL. After 30 mins of incubation at 30° C., 25 μL of supernatant aliquots were deposited on phosphocellulose Whatman P81 paper pieces of 2.5×3 cm, and after 20 seconds, the filters were washed five times (for at least 5 minutes each time) in a solution of 10 mL of phosphoric acid/1 litre of water. The wet filters were counted in the presence of 1 mL of scintillation fluid ACS (Amersham).

MDA-MB 231 (breast) = experiment: Cytotoxicity on human cells, automated nuclei counting: MDA-MB 231; type: cell-based; conditions: MDA-MB 231 cells, exposed 24 h to 48 h, 0.1 to 25 μM
Method: as §1, §2

HCT 116 (colon) = experiment: Cytotoxicity on human cells, automated nuclei counting: HCT 116; type: cell-based; conditions: HCT 116 cells, exposed 24 h to 48 h, 0.1 to 25 μM
Method: as §1, §2

PC3 (prostate) = experiment: Cytotoxicity on human cells, automated nuclei counting: PC3; type: cell-based; conditions: PC-3, exposed 24 h to 48 h, 0.1 to 25 μM
Method: as §1, §2

fibroblast = experiment: Cytotoxicity on human cells, automated nuclei counting: fibroblast; type: cell-based; conditions: exposed 24 h to 48 h, 0.1 to 25 μM
Method: as §1, §2

Huh7 (liver) = experiment: Cytotoxicity on human cells, automated nuclei counting: Huh7; type: cell-based; conditions: Huh-7, exposed 24 h to 48 h, 0.1 to 25 μM
Method: as §1, §2

NCI (lung) = experiment: Cytotoxicity on human cells, automated nuclei counting: NCI; type: cell-based; conditions: exposed 24 h to 48 h, 0.1 to 25 μM
Method: as §1, §2

Row | melting point [°C] | Structure (SMILES) | IC50 (Caco (colon)) [µM] | IC50 (CDK5/D25) [µM] | IC50 (MDA-MB 231 (breast)) [µM] | IC50 (HCT 116 (colon)) [µM] | IC50 (PC3 (prostate)) [µM] | IC50 (fibroblast) [µM] | IC50 (Huh7 (liver)) [µM] | IC50 (NCI (lung)) [µM]
1 | > 260 | Cc1cccnc1NC(=O)Nc1cccc2c1C1CC(=O)CCN1C2=O (centres unmarked) [Compound 100, 1-(2,6-dioxo-1,2,3,4,6,10b-hexahydropyrido[2,1-a]isoindol-10-yl)-3-(3-methylpyridin-2-yl)urea] | – | – | – | – | – | – | – | –
2 | 226 to 228 | Cc1cccc(NC(=O)Nc2cccc3c2C2CC(=O)CCN2C3=O)n1 (centres unmarked) [Compound 101, 1-(2,6-dioxo-1,2,3,4,6,10b-hexahydropyrido[2,1-a]isoindol-10-yl)-3-(6-methyl-pyridin-2-yl)urea] | – | – | – | – | – | – | – | –
3 | 172 | O=C(Nc1ccccc1)Nc1cccc2c1C1CCCCN1C2=O (centres unmarked) [Compound 87, N-(6-Oxo-1,2,3,4,6,10b-hexahydropyrido[2,1-a]isoindol-10-yl)-N′-phenylurea] | – | – | – | – | – | – | – | –
4 | 223 to 225 | COc1cc(NC(=O)Nc2cccc3c2C2CC(=O)CCN2C3=O)nc2ccccc12 (centres unmarked) [Compound 102, 1-(2,6-dioxo-1,2,3,4,6,10b-hexahydropyrido[2,1-a]isoindol-10-yl)-3-(4-methoxyquinolin-2-yl)urea] | – | – | – | – | – | – | – | –

The next lines start with the molecule.

Row | Structure (SMILES) | melting point [°C] | IC50 (Caco (colon)) [µM] | IC50 (CDK5/D25) [µM] | IC50 (MDA-MB 231 (breast)) [µM] | IC50 (HCT 116 (colon)) [µM] | IC50 (PC3 (prostate)) [µM] | IC50 (fibroblast) [µM] | IC50 (Huh7 (liver)) [µM] | IC50 (NCI (lung)) [µM]
5 | O=C(Nc1ccccn1)Nc1cccc2c1C1CC3(CCN1C2=O)OCCO3 (centres unmarked) [Compound 28, 1-(6′-Oxo-3′,4′,6′,10b′-tetrahydro-1′H-spiro[[1,3]dioxolane-2,2′-pyrido[2,1-a]isoindole]-10′-yl)-3-(pyridin-2-yl)urea] | – | 0.6 | 11 | 1 | 0.6 | 1.5 | 3 | 1 | 4
6 | Cc1cccc(NC(=O)Nc2cccc3c2C2CC(O)CCN2C3=O)n1 (centres unmarked) [Compound 108, 1-(2-Hydroxy-6-oxo-1,2,3,4,6,10b-hexahydropyrido[2,1-a]isoindol-10-yl)-3-(6-methylpyridin-2-yl)urea] | 240 to 242 | 15 | 1 | 8 | 3 | 2 | 10 | 3 | 10
7 | O=C(Nc1ccccn1)Nc1cccc2c1C1CCCCN1C2=O (centres unmarked) [Compound 30, 1-(6-oxo-1,2,3,4,6,10b-hexahydropyrido[2,1-a]isoindol-10-yl)-3-(pyridin-2-yl)urea] | – | 0.1 | – | 0.05 | – | 0.1 | 0.2 | 0.03 | 0.2
8 | O=C1c2cccc(NC(=S)Nc3ncccc3Br)c2C2CCCCN12 (centres unmarked) [Compound 72, 1-(3-bromopyridin-2-yl)-3-(6-oxo-1,2,3,4,6,10b-hexahydropyrido[2,1-a]isoindol-10-yl)thiourea] | 180 | – | – | – | – | – | – | – | –
9 | Nc1ccn(C(=O)Nc2cccc3c2C2CCCCN2C3=O)n1 (centres unmarked) [Compound 78, 3-Amino-N-(6-oxo-1,2,3,4,6,10b-hexahydropyrido[2,1-a]isoindol-10-yl)-1H-pyrazole-1-carboxamide] | 166 | – | – | – | – | – | – | – | –
10 | O=C1CCN2C(=O)c3cccc(NC(=O)Nc4ccccn4)c3C2C1 (centres unmarked) [Compound 97, 1-(2,6-Dioxo-1,2,3,4,6,10b-hexahydropyrido[2,1-a]isoindol-10-yl)-3-(pyridin-2-yl)urea] | 254 | 7 | 3.6 | 3 | 2 | 5 | 6 | 3 | 2
11 | O=C(Nc1cnccn1)Nc1cccc2c1C1CCCCN1C2=O (centres unmarked) [Compound 38, 1-(6-Oxo-1,2,3,4,6,10b-hexahydropyrido[2,1-a]isoindol-10-yl)-3-(pyrazin-2-yl)urea] | 215 | 1 | – | 0.2 | 0.1 | 0.3 | 0.8 | 0.2 | 0.8
12 | Cc1ccc(NC(=S)Nc2cccc3c2C2CCCCN2C3=O)nc1 (centres unmarked) [Compound 73, 1-(5-methylpyridin-2-yl)-3-(6-oxo-1,2,3,4,6,10b-hexahydropyrido[2,1-a]isoindol-10-yl)thiourea] | 232 | – | – | – | – | – | – | – | –
